From ChEMBL document CHEMBL4364295, “Discovery of a First-in-Class Receptor Interacting Protein 2 (RIP2) Kinase Specific Clinical Candidate, 2-((4-(Benzo[d]thiazol-5-ylamino)-6-(tert-butylsulfonyl)quinazolin-7-yl)oxy)ethyl Dihydrogen Phosphate, for the Treatment of Inflammatory Diseases” (J Med Chem, 2019)
Converted amounts (≈) assume the structure as drawn. Blank lines part the entries; values can stand above or below the compound they belong to.

Legend:
[1] = Volume of distribution at steady state in Sprague-Dawley rat at 2 mg/kg, po or 0.5 mg/kg, iv by LC/MS/MS analysis; assay type: ADME, organism-based; settings: in vivo, read-out: Vdss
[2] = target: T1, Ephrin type-A receptor 6 (Homo sapiens) (UniProt Q9UF33); test: Inhibition of human EPHA6 at 1 uM using poly[Glu:Tyr] (4:1) as substrate in presence of [gamma-33P]ATP relative to control
T1 sequence (whole entry): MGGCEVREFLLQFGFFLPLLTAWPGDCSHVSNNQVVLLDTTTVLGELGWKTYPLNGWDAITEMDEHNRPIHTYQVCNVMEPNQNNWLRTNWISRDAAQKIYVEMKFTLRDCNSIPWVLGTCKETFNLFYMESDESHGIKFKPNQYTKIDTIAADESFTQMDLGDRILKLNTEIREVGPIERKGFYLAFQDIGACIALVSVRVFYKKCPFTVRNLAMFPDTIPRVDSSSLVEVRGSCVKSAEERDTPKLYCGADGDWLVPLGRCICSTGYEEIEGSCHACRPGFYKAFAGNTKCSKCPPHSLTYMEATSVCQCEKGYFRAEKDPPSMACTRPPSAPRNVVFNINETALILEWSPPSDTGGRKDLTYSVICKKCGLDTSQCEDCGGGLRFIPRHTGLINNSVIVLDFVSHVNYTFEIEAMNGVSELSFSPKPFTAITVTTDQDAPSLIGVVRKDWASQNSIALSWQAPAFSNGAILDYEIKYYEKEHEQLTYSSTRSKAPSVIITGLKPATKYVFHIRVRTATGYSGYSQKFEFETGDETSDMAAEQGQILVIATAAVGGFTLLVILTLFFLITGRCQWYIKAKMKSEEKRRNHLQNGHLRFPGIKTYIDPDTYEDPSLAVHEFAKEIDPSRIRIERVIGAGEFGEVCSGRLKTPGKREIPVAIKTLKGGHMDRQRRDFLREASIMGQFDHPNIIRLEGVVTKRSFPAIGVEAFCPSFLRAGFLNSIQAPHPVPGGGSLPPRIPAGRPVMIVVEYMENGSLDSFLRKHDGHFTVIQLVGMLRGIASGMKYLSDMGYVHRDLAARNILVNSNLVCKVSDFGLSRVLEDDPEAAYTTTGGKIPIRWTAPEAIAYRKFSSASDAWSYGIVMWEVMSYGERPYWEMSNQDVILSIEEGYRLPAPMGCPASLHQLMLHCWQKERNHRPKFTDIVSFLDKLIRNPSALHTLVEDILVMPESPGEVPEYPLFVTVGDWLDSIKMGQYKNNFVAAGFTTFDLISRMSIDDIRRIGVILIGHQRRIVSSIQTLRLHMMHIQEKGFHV

[3] = target: Vascular endothelial growth factor receptor 3 (Homo sapiens) (UniProt P35916); test: Inhibition of human VEGFR3 at 1 uM using poly[Glu:Tyr] (4:1) as substrate in presence of [gamma-33P]ATP relative to control
[4] = Terminal half life in Sprague-Dawley rat at 2 mg/kg, po or 0.5 mg/kg, iv by LC/MS/MS analysis; assay type: ADME, organism-based; settings: in vivo, read-out: beta t1/2 (converted)
[5] = Cmax in Beagle dog at 2 mg/kg, po by LC/MS/MS analysis; assay type: ADME, organism-based, Canis lupus familiaris; parameters: dose 2 mg/kg, route oral; settings: in vivo
[6] = AUC in Beagle dog at 2 mg/kg, po by LC/MS/MS analysis; assay type: ADME, organism-based, Canis lupus familiaris; settings: in vivo
[7] = AUC in Gottingen minipig at 1 mg/kg, po by LC/MS/MS analysis; assay type: ADME, organism-based, Sus scrofa; settings: pig, in vivo
[8] = AUC in Sprague-Dawley rat at 20 mg/kg, po using crystalline sample during 7 day dose ranging study by LC/MS/MS analysis; assay type: ADME, organism-based; settings: in vivo
[9] = Solubility of the compound in FaSSIF measured after 4 hrs; assay type: physicochemical
[10] = target: Nucleotide-binding oligomerization domain-containing protein 2 (Homo sapiens, UniProt Q9HC29); test: Inhibition of NOD2 in human monocytes assessed as reduction in MDP-induced TNFalpha production preincubated for 30 mins followed by MDP-stimulation and measured after 6 hrs by immunoassay; assay type: cell-based
[11] = target: Toll-like receptor 4 (Homo sapiens, UniProt O00206); test: Inhibition of TLR4 in human monocytes assessed as reduction in LPS-induced TNFalpha production; assay type: cell-based
[12] = Unbound fraction in human blood; assay type: ADME, tissue-based
[13] = Clearance in rat hepatocytes; assay type: ADME, cell-based, Hepatocyte
[14] = AUC in Sprague-Dawley rat assessed as 2-((4-(Benzo[d]thiazol-5-ylamino)-6-(tert-butylsulfonyl)quinazolin-7-yl)oxy)ethanol level at 2 mg/kg, po by LC/MS/MS analysis; assay type: ADME, organism-based; settings: in vivo
[15] = Cmax in Gottingen minipig assessed as 2-((4-(Benzo[d]thiazol-5-ylamino)-6-(tert-butylsulfonyl)quinazolin-7-yl)oxy)ethanol level at 1 mg/kg, po by LC/MS/MS analysis; assay type: ADME, organism-based, Sus scrofa; parameters: dose 1 mg/kg, route oral; settings: pig, in vivo
[16] = AUC in Gottingen minipig assessed as 2-((4-(Benzo[d]thiazol-5-ylamino)-6-(tert-butylsulfonyl)quinazolin-7-yl)oxy)ethanol level at 1 mg/kg, po by LC/MS/MS analysis; assay type: ADME, organism-based, Sus scrofa; settings: pig, in vivo
[17] = Oral bioavailability in Gottingen minipig assessed as 2-((4-(Benzo[d]thiazol-5-ylamino)-6-(tert-butylsulfonyl)quinazolin-7-yl)oxy)ethanol level at 1 mg/kg by LC/MS/MS analysis; assay type: ADME, organism-based, Sus scrofa; settings: pig, in vivo
[18] = Half life in dog intestinal S9 fraction; assay type: ADME, subcellular, Canis lupus familiaris, Intestine
[19] = Half life in human intestinal S9 fraction; assay type: ADME, subcellular, Intestine
[20] = Half life in dog blood; assay type: ADME, tissue-based, Canis lupus familiaris
[21] = Prodrug conversion in Han Wistar rat skin assessed as 2-((4-(Benzo[d]thiazol-5-ylamino)-6-(tert-butylsulfonyl)quinazolin-7-yl)oxy)ethanol formation at 2 mg/kg, iv administered as infusion for 4 hrs; assay type: ADME, organism-based, Zone of skin; settings: in vivo
[22] = Drug uptake in Han Wistar rat skin at 2 mg/kg, iv administered as infusion for 4 hrs; assay type: ADME, organism-based, Zone of skin; settings: in vivo
[23] = Drug uptake in Han Wistar rat brain at 2 mg/kg, iv administered as infusion for 4 hrs; assay type: ADME, organism-based; settings: in vivo
[24] = Prodrug conversion in rat hepatocytes assessed as 2-(4-(benzo[d]thiazol-5-ylamino)-7-(2-hydroxyethoxy)quinazolin-6-ylsulfonyl)-2-methylpropan-1-ol formation at 20 uM measured after 4 hrs; assay type: ADME, cell-based, Hepatocyte
[25] = Prodrug conversion in minipig hepatocytes assessed as 2-((4-(Benzo[d]thiazol-5-ylamino)-6-(tert-butylsulfonyl)quinazolin-7-yl)oxy)ethanol formation at 20 uM measured after 4 hrs; assay type: ADME, cell-based, Sus scrofa, Hepatocyte; settings: pig
[26] = Prodrug conversion in minipig hepatocytes assessed as (2S,3S,4S,5R,6R)-6-(2-(4-(benzo[d]thiazol-5-ylamino)-6-(tert-butylsulfonyl)quinazolin-7-yloxy)ethoxy)-3,4,5-trihydroxytetrahydro-2H-pyran-2-carboxylic acid formation at 20 uM measured after 4 hrs; assay type: ADME, cell-based, Sus scrofa, Hepatocyte; settings: pig
[27] = Prodrug conversion in minipig hepatocytes assessed as hydrogenation at 20 uM measured after 4 hrs; assay type: ADME, cell-based, Sus scrofa, Hepatocyte; settings: pig
[28] = Prodrug conversion in human hepatocytes assessed as 2-((4-(Benzo[d]thiazol-5-ylamino)-6-(tert-butylsulfonyl)quinazolin-7-yl)oxy)ethanol formation at 20 uM measured after 4 hrs; assay type: ADME, cell-based, Hepatocyte
[29] = Prodrug conversion in human hepatocytes assessed as 2-(4-(benzo[d]thiazol-5-ylamino)-7-(2-hydroxyethoxy)quinazolin-6-ylsulfonyl)-2-methylpropan-1-ol formation at 20 uM measured after 4 hrs; assay type: ADME, cell-based, Hepatocyte

Chain of Nucleotide-binding oligomerization domain-containing protein 2 (Q9HC29 whole entry, the tested form may be a part): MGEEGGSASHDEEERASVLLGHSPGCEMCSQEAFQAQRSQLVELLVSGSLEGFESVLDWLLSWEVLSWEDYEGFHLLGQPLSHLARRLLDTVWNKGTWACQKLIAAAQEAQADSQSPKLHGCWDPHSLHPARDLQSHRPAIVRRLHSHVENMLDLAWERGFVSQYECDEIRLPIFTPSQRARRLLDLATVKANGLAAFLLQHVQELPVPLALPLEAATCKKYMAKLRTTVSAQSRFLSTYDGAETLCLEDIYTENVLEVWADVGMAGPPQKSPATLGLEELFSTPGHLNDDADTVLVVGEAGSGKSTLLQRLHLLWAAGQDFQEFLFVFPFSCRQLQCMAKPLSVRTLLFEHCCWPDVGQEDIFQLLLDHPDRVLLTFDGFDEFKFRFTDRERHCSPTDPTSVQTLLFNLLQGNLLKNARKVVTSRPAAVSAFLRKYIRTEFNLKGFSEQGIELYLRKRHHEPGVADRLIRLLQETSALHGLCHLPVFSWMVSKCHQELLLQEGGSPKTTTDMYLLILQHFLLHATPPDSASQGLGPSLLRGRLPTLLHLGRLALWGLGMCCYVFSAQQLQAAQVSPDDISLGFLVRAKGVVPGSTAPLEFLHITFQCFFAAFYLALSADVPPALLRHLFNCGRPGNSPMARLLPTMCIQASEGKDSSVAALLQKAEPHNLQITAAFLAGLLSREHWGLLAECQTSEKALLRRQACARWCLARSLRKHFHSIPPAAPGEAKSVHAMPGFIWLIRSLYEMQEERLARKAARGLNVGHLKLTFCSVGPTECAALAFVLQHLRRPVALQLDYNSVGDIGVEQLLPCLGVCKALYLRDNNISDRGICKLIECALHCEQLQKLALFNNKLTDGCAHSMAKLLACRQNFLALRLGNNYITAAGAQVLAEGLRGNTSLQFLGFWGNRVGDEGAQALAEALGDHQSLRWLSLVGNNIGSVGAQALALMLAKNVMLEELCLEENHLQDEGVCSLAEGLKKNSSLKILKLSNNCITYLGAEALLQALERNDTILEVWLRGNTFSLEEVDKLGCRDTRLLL
Chain of Toll-like receptor 4 (O00206 whole entry): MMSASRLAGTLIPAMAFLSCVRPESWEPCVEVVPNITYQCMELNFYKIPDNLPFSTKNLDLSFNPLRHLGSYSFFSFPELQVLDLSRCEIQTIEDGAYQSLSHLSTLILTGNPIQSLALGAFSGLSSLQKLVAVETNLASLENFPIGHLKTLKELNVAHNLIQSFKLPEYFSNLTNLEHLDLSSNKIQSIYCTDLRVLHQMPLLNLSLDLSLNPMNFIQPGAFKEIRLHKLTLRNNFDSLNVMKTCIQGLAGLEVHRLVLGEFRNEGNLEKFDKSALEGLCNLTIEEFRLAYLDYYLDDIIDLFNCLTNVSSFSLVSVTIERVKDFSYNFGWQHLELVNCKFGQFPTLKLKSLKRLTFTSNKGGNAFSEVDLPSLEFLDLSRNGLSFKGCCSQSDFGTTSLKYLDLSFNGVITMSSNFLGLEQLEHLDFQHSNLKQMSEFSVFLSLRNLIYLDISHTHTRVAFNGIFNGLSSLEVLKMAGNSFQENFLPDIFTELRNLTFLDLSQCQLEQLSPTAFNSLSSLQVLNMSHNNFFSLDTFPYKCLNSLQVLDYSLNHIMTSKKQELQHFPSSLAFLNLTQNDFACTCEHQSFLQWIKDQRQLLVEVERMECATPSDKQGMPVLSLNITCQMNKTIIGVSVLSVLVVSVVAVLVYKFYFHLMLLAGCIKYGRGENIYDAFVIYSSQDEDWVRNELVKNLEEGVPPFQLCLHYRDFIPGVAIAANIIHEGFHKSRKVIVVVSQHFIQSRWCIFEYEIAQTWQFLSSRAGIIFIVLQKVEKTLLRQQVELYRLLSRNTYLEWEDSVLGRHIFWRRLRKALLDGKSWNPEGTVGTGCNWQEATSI
Chain of Vascular endothelial growth factor receptor 3 (Homo sapiens) (P35916 whole entry): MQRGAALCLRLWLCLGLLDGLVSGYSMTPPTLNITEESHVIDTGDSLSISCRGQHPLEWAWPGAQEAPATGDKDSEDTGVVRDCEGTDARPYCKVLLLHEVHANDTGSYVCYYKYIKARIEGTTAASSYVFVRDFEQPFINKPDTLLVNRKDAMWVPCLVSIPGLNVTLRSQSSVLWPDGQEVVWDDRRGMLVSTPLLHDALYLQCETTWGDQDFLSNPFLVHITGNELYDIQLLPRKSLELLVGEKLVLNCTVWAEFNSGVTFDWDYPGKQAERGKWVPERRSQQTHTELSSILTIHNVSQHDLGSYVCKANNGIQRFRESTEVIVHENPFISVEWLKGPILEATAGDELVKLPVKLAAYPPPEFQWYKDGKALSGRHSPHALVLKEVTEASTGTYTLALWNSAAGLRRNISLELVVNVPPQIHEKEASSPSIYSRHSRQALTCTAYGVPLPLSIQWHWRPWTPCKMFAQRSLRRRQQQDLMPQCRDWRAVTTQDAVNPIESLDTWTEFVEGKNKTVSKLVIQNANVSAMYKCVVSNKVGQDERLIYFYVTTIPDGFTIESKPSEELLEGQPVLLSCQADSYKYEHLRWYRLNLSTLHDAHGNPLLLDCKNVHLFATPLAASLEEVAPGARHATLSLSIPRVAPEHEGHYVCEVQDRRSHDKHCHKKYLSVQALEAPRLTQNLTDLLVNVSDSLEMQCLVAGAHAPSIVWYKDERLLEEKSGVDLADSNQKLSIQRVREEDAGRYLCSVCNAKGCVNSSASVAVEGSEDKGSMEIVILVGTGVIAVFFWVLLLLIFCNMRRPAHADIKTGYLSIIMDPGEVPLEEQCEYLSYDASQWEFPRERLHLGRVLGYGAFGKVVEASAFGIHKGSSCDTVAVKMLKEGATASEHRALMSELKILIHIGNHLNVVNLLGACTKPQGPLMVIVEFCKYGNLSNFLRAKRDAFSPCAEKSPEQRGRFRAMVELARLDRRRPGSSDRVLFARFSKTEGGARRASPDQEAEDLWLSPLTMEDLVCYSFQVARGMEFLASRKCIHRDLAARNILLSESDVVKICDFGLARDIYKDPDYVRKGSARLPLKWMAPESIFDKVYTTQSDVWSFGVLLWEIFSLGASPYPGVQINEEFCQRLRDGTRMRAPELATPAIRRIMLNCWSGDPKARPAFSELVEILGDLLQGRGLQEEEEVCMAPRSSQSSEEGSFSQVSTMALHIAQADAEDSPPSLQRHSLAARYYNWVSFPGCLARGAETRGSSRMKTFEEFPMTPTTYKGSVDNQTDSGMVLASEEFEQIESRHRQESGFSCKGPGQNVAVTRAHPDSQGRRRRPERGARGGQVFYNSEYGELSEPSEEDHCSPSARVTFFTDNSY

Vd [1]: 4.1 L/kg
inhibition [2]: 70 to 90%
inhibition [3]: > 90%
half-life [4]: 264 min
Cmax [5]: 470 ng/mL
AUC [6]: 1800 ng·h/mL
AUC [7]: 85 ng·h/mL
AUC at 168 h [8]: 8800 ng·h/mL
solubility at 4 h [9]: 4 µg/mL (≈ 8.72 µM)
inhibition [10]: Dose-dependent effect
IC50 [11]: > 10 µM
fraction unbound [12]: 0.069
CLH [13]: < 0.48 mL/min/g
Structure (SMILES): CC(C)(C)S(=O)(=O)c1cc2c(Nc3ccc4scnc4c3)ncnc2cc1OCCO

AUC [14]: 560 ng·h/mL
Cmax [15]: 340 ng/mL
AUC [16]: 1100 ng·h/mL
F [17]: 58%
half-life [18]: 8 min
half-life [19]: 18.3 min
half-life [20]: 21 min
Drug metabolism [21]: Metabolite_Detected
Drug uptake [22]: Not Active
Drug uptake [23]: Not Active
Drug metabolism [24]: Metabolite_Detected
Drug metabolism [25]: Metabolite_Detected
Drug metabolism [26]: Metabolite_Detected
Drug metabolism [27]: Metabolite_Detected
Drug metabolism [28]: Metabolite_Detected
Drug metabolism [29]: Metabolite_Detected
Structure (SMILES): CC(C)(C)S(=O)(=O)c1cc2c(Nc3ccc4scnc4c3)ncnc2cc1OCCOP(=O)(O)O.[CaH2]
